Where two headings read alike, the source gives them in different places.
Columns and labels:
SIRT2 [1] = target: T1, SIRT2 (Homo sapiens, UniProt Q8IXJ6); experiment: sirtuin deacetylase inhibition assay, % inhibition at […] ([…] at […]); type: biochemical
T1 sequence (Q8IXJ6 2-389): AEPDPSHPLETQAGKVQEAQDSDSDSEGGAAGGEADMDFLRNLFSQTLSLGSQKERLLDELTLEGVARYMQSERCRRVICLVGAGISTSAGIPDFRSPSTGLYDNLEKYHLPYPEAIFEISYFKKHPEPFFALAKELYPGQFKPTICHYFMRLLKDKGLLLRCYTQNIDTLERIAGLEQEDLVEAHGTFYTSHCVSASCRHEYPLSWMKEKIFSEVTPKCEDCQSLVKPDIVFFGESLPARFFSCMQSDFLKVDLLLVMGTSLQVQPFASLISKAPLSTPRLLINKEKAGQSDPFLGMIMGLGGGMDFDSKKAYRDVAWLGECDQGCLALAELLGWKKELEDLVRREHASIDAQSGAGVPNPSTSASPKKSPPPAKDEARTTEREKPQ

BT-549 = experiment: cells; design: species or system NCI-60 human tumour cell lines; NCI-60 one-dose screen at 10 uM, percent growth inhibition versus untreated control cells; settings: Homo sapiens, BT-549; growth inhibition, one dose; read-out: Growth% inhibition / 5c
Method: (§1) The antiproliferative activity of the target compounds 5a–h was screened against a panel of 60 cancer cell lines according to NCI-guidelines at concentration of 10 μM. The results for each compound (Table 1) were recorded as the percent of growth inhibition of treated cells compared to untreated control cells. […] In addition, 5b recorded significant activity against leukemia cancer cell lines K-562 and MOLT-4, Non-small cell lung cancer cell lines NCI-H322M and NCI-H460, Colon cancer cell lines COLO 205, HCT-15 and HCT-116, CNS cancer cell lines SF-295 and SF-539, Melanoma cancer cell lines LOX IMVI and UACC-62, Ovarian cancer cell lines NCI/ADR-RES, OVCAR-3, and OVCAR-4, Renal cancer cell lines CAKI-1, ACHN, and UO-31, and Breast cancer MCF7 cell line with growth inhibition percentage between 80 to 95. […] The methodology of the NCI anticancer screening has been described in detail elsewhere (https://dtp.cancer.gov/).[52]

UO-31 = experiment: cells; design: species or system NCI-60 human tumour cell lines; NCI-60 one-dose screen at 10 uM, percent growth inhibition versus untreated control cells; settings: Homo sapiens, UO-31, growth inhibition, one dose
Method: as §1

T-47D = experiment: cells; design: species or system NCI-60 human tumour cell lines; NCI-60 one-dose screen at 10 uM, percent growth inhibition versus untreated control cells; settings: Homo sapiens, T47D; growth inhibition, one dose; read-out: Growth% inhibition / 5c
Method: as §1

SF-539 = experiment: cells; design: species or system NCI-60 human tumour cell lines; NCI-60 one-dose screen at 10 uM, percent growth inhibition versus untreated control cells; settings: Homo sapiens, SF-539; growth inhibition, one dose; read-out: Growth% inhibition / 5c
Method: as §1

K-562 = experiment: cells; design: species or system NCI-60 human tumour cell lines; NCI-60 one-dose screen at 10 uM, percent growth inhibition versus untreated control cells; settings: Homo sapiens, K562; growth inhibition, one dose; read-out: Growth% inhibition / 5c
Method: as §1

RPMI-8226 = experiment: cells; design: species or system NCI-60 human tumour cell lines; NCI-60 one-dose screen at 10 uM, percent growth inhibition versus untreated control cells; settings: Homo sapiens, RPMI-8226; growth inhibition, one dose; read-out: Growth% inhibition / 5c
Method: as §1

CCRF-CEM = experiment: cells; design: species or system NCI-60 human tumour cell lines; NCI-60 one-dose screen at 10 uM, percent growth inhibition versus untreated control cells; settings: Homo sapiens, CCRF-CEM; growth inhibition, one dose; read-out: Growth% inhibition / 5c
Method: as §1

UACC-62 = experiment: cells; design: species or system NCI-60 human tumour cell lines; NCI-60 one-dose screen at 10 uM, percent growth inhibition versus untreated control cells; settings: Homo sapiens, UACC-62, growth inhibition, one dose
Method: as §1

NCI-H522 = experiment: cells; design: species or system NCI-60 human tumour cell lines; NCI-60 one-dose screen at 10 uM, percent growth inhibition versus untreated control cells; settings: Homo sapiens, NCI-H522; growth inhibition, one dose; read-out: Growth% inhibition / 5c
Method: as §1

NCI-H226 = experiment: cells; design: species or system NCI-60 human tumour cell lines; NCI-60 one-dose screen at 10 uM, percent growth inhibition versus untreated control cells; settings: Homo sapiens, NCI-H226, growth inhibition, one dose
Method: as §1

NCI-H322M = experiment: cells; design: species or system NCI-60 human tumour cell lines; NCI-60 one-dose screen at 10 uM, percent growth inhibition versus untreated control cells; settings: Homo sapiens, NCI-H322M; growth inhibition, one dose; read-out: Growth% inhibition / 5c
Method: as §1

MCF7 = experiment: cells; design: species or system NCI-60 human tumour cell lines; NCI-60 one-dose screen at 10 uM, percent growth inhibition versus untreated control cells; settings: Homo sapiens, MCF7; growth inhibition, one dose; read-out: Growth% inhibition / 5c
Method: as §1

SIRT2 [2] = target: T1, SIRT2; experiment: biochemical; design: Sirtuin-TK assay, percent inhibition of human SIRT1 or SIRT2 at 5 and 50 uM
Method: (§2) Sirtuin-TK assay was performed to estimate the Sirtuins inhibitory potential of 5a–h (Tables 2 and 3). The results of this test strongly complemented the findings of cancer cell-based assessments. […] Of the 8 compounds evaluated, 3 analogs (5b, 5e and 5h) were more likely to inhibit Sirt2 (>70% inhibition) than Sirt1 (<50% inhibition) at 50 μM. The other compounds were poor inhibitors of both enzymes. […] 4.2.2. Sirtuin inhibitory assay

SIRT1 = target: T2, SIRT1 (Homo sapiens, UniProt Q96EB6); experiment: biochemical; design: Sirtuin-TK assay, percent inhibition of human SIRT1 or SIRT2 at 5 and 50 uM
T2 sequence (Q96EB6 2-747): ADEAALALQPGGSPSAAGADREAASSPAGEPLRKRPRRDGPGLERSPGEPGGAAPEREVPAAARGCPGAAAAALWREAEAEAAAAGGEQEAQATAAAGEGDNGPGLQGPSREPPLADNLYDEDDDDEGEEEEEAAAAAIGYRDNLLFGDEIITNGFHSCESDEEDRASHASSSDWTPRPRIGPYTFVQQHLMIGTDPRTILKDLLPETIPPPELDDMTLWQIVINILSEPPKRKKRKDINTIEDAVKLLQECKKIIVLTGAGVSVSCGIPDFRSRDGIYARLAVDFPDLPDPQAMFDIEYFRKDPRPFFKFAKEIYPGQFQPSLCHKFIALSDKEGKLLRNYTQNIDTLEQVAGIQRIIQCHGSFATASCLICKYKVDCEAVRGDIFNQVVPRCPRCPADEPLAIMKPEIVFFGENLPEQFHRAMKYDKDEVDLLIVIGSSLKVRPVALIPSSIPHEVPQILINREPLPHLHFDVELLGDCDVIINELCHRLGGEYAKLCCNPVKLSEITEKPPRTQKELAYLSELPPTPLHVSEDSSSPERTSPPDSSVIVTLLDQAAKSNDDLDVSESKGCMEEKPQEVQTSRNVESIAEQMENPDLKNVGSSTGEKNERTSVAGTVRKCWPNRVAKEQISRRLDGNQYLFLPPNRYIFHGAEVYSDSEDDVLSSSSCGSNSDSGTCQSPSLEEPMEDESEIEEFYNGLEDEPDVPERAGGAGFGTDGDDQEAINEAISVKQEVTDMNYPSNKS
Method: as §2

SIRT2 [3] = target: T1, SIRT2; experiment: sirtuin deacetylase inhibition assay, % inhibition at […] ([…] at […]); type: biochemical; remark: listed apart in the source
SR = experiment: cells; design: species or system NCI-60 human tumour cell lines; NCI-60 one-dose screen at 10 uM, percent growth inhibition versus untreated control cells; settings: Homo sapiens, SR; growth inhibition, one dose; read-out: Growth% inhibition / 5f
Method: as §1

IGROV1 = experiment: cells; design: species or system NCI-60 human tumour cell lines; NCI-60 one-dose screen at 10 uM, percent growth inhibition versus untreated control cells; settings: Homo sapiens, IGROV-1, growth inhibition, one dose
Method: as §1

HOP-92 = experiment: cells; design: species or system NCI-60 human tumour cell lines; NCI-60 one-dose screen at 10 uM, percent growth inhibition versus untreated control cells; settings: Homo sapiens, HOP-92; growth inhibition, one dose; read-out: Growth% inhibition / 5f
Method: as §1

CAKI-1 = experiment: cells; design: species or system NCI-60 human tumour cell lines; NCI-60 one-dose screen at 10 uM, percent growth inhibition versus untreated control cells; settings: Homo sapiens, CAKI-1; growth inhibition, one dose; read-out: Growth% inhibition / 5f
Method: as §1

SNB-75 = experiment: cells; design: species or system NCI-60 human tumour cell lines; NCI-60 one-dose screen at 10 uM, percent growth inhibition versus untreated control cells; settings: Homo sapiens, SNB-75, growth inhibition, one dose
Method: as §1

SIRT2 [4] = target: T1, SIRT2; experiment: sirtuin deacetylase inhibition assay, % inhibition at […] ([…] at […]); type: biochemical; remark: listed apart in the source
LOX IMVI = experiment: cells; design: species or system NCI-60 human tumour cell lines; NCI-60 one-dose screen at 10 uM, percent growth inhibition versus untreated control cells; settings: Homo sapiens, LOX IMVI; growth inhibition, one dose; read-out: Growth% inhibition / 5g
Method: as §1

[5] = read-out: Growth% inhibition / 5c
[6] = read-out: Growth% inhibition / 5f
[7] = read-out: Growth% inhibition / 5g

With `COc1cc(C=NNC(=O)/C=C/C=C/c2ccc3c(c2)OCO3)ccc1O` [5c, (2E,4E)-5-(Benzo[d][1,3]dioxol-5-yl)-N′-((E,Z)-4-hydroxy-3-methoxybenzylidene)penta-2,4-dienehydrazide] as the molecule, how does the inhibition at 50 µM (SIRT2 [1]) read?
The inhibition at 50 µM was 58 ± 3%.

What about the inhibition at 10 µM (BT-549) of the same molecule?
The inhibition at 10 µM was 13.6%.

What about the inhibition at 10 µM (UO-31; [5]) of the same molecule?
The inhibition at 10 µM was 14%.

What about the inhibition at 10 µM (T-47D) of the same molecule?
Its inhibition at 10 µM is 19.8%.

What about the inhibition at 10 µM (SF-539) of the same molecule?
Its inhibition at 10 µM is 15.3%.

And the inhibition at 10 µM (K-562)?
The inhibition at 10 µM was 10.5%.

And the inhibition at 10 µM (RPMI-8226)?
The inhibition at 10 µM was 15.3%.

What about the inhibition at 10 µM (CCRF-CEM) of the same molecule?
Its inhibition at 10 µM is 12.1%.

What about the inhibition at 10 µM (UACC-62; [5]) of the same molecule?
Its inhibition at 10 µM is 11.3%.

What about the inhibition at 10 µM (NCI-H522) of the same molecule?
The inhibition at 10 µM was 22%.

What about the inhibition at 10 µM (NCI-H226; [5]) of the same molecule?
Its inhibition at 10 µM is 18.3%.

What about the inhibition at 10 µM (NCI-H322M) of the same molecule?
The inhibition at 10 µM was 14.7%.

And the inhibition at 10 µM (MCF7)?
The inhibition at 10 µM was 20.1%.

And the inhibition at 5 µM (SIRT2 [2])?
Its inhibition at 5 µM is 17 ± 3%.

And the inhibition at 5 µM (SIRT1)?
The inhibition at 5 µM was 12 ± 1%.

And the inhibition at 50 µM (SIRT1)?
The inhibition at 50 µM was 38 ± 3%.

`O=C(/C=C/C=C/c1ccc2c(c1)OCO2)NN=C(c1ccc(F)cc1)c1ccc(F)cc1` [5f, (2E,4E)-5-(Benzo[d][1,3]dioxol-5-yl)-N′-(bis(4-fluorophenyl)methylene)penta-2,4-dienehydrazide] was tested. Which inhibition at 50 µM (SIRT2 [3]) did it give?
Its inhibition at 50 µM is 69 ± 3%.

And the inhibition at 10 µM (SR)?
Its inhibition at 10 µM is 36.3%.

And the inhibition at 10 µM (IGROV1; [6])?
Its inhibition at 10 µM is 12.1%.

What about the inhibition at 10 µM (UO-31; [6]) of the same molecule?
Its inhibition at 10 µM is 18.3%.

What about the inhibition at 10 µM (HOP-92) of the same molecule?
The inhibition at 10 µM was 13.8%.

What about the inhibition at 10 µM (UACC-62; [6]) of the same molecule?
The inhibition at 10 µM was 12.2%.

And the inhibition at 10 µM (CAKI-1)?
Its inhibition at 10 µM is 12.8%.

And the inhibition at 10 µM (SNB-75; [6])?
The inhibition at 10 µM was 16.6%.

And the inhibition at 5 µM (SIRT2 [2])?
Its inhibition at 5 µM is 20 ± 4%.

What about the inhibition at 5 µM (SIRT1) of the same molecule?
The inhibition at 5 µM was 14 ± 4%.

What about the inhibition at 50 µM (SIRT1) of the same molecule?
The inhibition at 50 µM was 39 ± 3%.

What does the source list for `CC(C)(C)c1cc(/C=N/NC(=O)/C=C/C=C/c2ccc3c(c2)OCO3)c(O)c(C(C)(C)C)c1` [5g, (2E,4E)-5-(Benzo[d][1,3]dioxol-5-yl)-N′-((E)-3,5-di-tert-butyl-2-hydroxy-benzylidene)penta-2,4-dienehydrazide]?
inhibition at 50 µM (SIRT2 [4]): 55 ± 1%; inhibition at 10 µM (IGROV1; [7]): 14.1%; inhibition at 10 µM (UO-31; [7]): 27.9%; inhibition at 10 µM (LOX IMVI): 12.1%; inhibition at 10 µM (SNB-75; [7]): 33%; inhibition at 10 µM (NCI-H226; [7]): 10.1%; inhibition at 5 µM (SIRT2 [2]): 19 ± 2%; inhibition at 5 µM (SIRT1): 9 ± 2%; inhibition at 50 µM (SIRT1): 35 ± 1%
